Measurements: US20250230193A1, “CYCLIC COMPOUND HAVING SELECTIVE KRAS INHIBITORY EFFECT ON HRAS AND NRAS” (CHUGAI SEIYAKU KABUSHIKI KAISHA, priority 2022, published 2025)
Where a SMILES comes first, the peptide text is derived from it. Bridges are numbered along the chain shown (N, C = ends). [ ]: non-standard residue; d: D form. hPhe(3,5-F2-4-CF3) = N[C@@H](CCc1cc(F)c(C(F)(F)F)c(F)c1)C(=O)O; NPrPhe(4-CF3) = CCCN[C@@H](Cc1ccc(C(F)(F)F)cc1)C(=O)O; NMeGly(cPent) = CN[C@H](C(=O)O)C1CCCC1; NMeD = CN[C@@H](CC(=O)O)C(=O)O; NMeL = CN[C@@H](CC(C)C)C(=O)O; αMeL = CC(C)C[C@](C)(N)C(=O)O; αMeV = CC(C)[C@](C)(N)C(=O)O; Sar = CNCC(=O)O

Tests used:
[1] = target: GDP-bound NRAS wild-type protein (Homo sapiens, UniProt P01111); test: Binding to NRAS by surface plasmon resonance (SPR), Single Cycle Kinetics; settings: for NRAS/KRAS (ratio of KD value with respect to NRAS to KD value with respect to KRAS): GDP-bound NRAS wild-type vs GDP-bound KRAS wild-type
[2] = target: GDP-bound HRAS wild-type protein (Homo sapiens, UniProt P01112); test: Binding to HRAS by surface plasmon resonance (SPR), Single Cycle Kinetics; settings: for HRAS/KRAS (ratio of KD value with respect to HRAS to KD value with respect to KRAS): GDP-bound HRAS wild-type vs GDP-bound KRAS wild-type
[3] = SPR, GDP-bound wild-type proteins

GDP-bound NRAS wild-type protein, sequence (P01111 whole entry): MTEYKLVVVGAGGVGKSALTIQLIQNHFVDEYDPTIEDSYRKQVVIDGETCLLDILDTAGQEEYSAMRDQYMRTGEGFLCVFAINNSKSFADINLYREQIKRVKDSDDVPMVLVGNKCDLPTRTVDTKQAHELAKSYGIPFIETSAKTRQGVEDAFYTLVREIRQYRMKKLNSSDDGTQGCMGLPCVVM
GDP-bound HRAS wild-type protein, sequence (P01112 whole entry): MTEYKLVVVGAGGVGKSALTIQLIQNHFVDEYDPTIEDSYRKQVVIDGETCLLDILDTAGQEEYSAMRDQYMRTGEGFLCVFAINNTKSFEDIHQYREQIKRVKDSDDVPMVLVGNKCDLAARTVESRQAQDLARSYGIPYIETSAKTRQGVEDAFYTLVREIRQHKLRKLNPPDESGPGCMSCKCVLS

CC[C@H](C)[C@@H]1NC(=O)[C@H](CC(C)C)N(C)C(=O)C[C@@H](C(=O)N2CCOCC2)N(C)C(=O)[C@H](C2CCCC2)N(C)C(=O)C2(CCC2)NC(=O)[C@@H]2C[C@@H](C(F)(F)F)CN2C(=O)[C@H](CCc2cc(F)c(C(F)(F)F)c(F)c2)NC(=O)CN(C)C(=O)[C@H](Cc2ccc(C(F)(F)F)cc2)N2CCCCC[C@@H](C2=O)N(C)C(=O)CN(C)C1=O [PP0818]
NRAS/KRAS (ratio of KD value with respect to NRAS to KD value with respect to KRAS) ([1]; KD ratio, SPR): B (a compound having 3 or more and less than 10 is denoted as B)
HRAS/KRAS (ratio of KD value with respect to HRAS to KD value with respect to KRAS) ([2]; KD ratio, SPR): B (a compound having 3 or more and less than 10 is denoted as B)

CCO[C@@H]1C[C@H]2C(=O)NC3(CC(C)(C)C3)C(=O)N(C)[C@@H](C(CC)CC)C(=O)N(C)[C@H](C(=O)N(C)C)CC(=O)N(C)[C@@H](COC)C(=O)N[C@@H]([C@@H](C)CC)C(=O)N(C)CC(=O)N(C)[C@H]3C/C=C\CCN(C3=O)[C@@H](Cc3ccc(C(F)(F)F)cc3)C(=O)N(C)CC(=O)N[C@@H](CCc3ccc(C(F)(F)F)c(Cl)c3)C(=O)N2C1 [PP2126]
NRAS/KRAS (ratio of KD value with respect to NRAS to KD value with respect to KRAS) ([1]; SPR): A (a compound having 10 or more and less than 20 is denoted as A)
HRAS/KRAS (ratio of KD value with respect to HRAS to KD value with respect to KRAS) ([2]; SPR): B (a compound having 3 or more and less than 10 is denoted as B)

CCCN1C(=O)CN(C)C(=O)CN(C)C(=O)[C@H]([C@@H](C)CC)NC(=O)[C@H](CC(C)C)N(C)C(=O)C[C@@H](C(=O)N(C)C)N(C)C(=O)[C@H](C2CCCC2)N(C)C(=O)[C@](C)(C(C)C)NC(=O)[C@@H]2CCCN2C(=O)[C@H](CCc2cc(F)c(C(F)(F)F)c(F)c2)NC(=O)CN(C)C(=O)[C@@H]1Cc1ccc(C(F)(F)F)cc1 [PP0735] ([NMeL]I[Sar][Sar][NPrPhe(4-CF3)][Sar][hPhe(3,5-F2-4-CF3)]P[αMeV][NMeGly(cPent)][NMeD]-NMe2; lactam N-11)
NRAS/KRAS (ratio of KD value with respect to GDP-bound NRAS wild-type protein to KD value with respect to KRAS) ([1]; SPR): B (a compound having 3 or more and less than 10 is denoted as B)
HRAS/KRAS (ratio of KD value with respect to GDP-bound HRAS wild-type protein to KD value with respect to KRAS) ([2]; SPR): C (A compound having a KD ratio of 0.1 or more and less than 3 is denoted as C)

CCCN1C(=O)CN(C)C(=O)CN(C)C(=O)[C@H]([C@@H](C)CC)NC(=O)[C@H](CC(C)C)N(C)C(=O)C[C@@H](C(=O)N(C)C)N(C)C(=O)[C@H](C2CCCC2)N(C)C(=O)[C@](C)(CC(C)C)NC(=O)[C@@H]2CCCN2C(=O)[C@H](CCc2cc(F)c(C(F)(F)F)c(F)c2)NC(=O)CN(C)C(=O)[C@@H]1Cc1ccc(C(F)(F)F)cc1 [PP0738] ([NMeL]I[Sar][Sar][NPrPhe(4-CF3)][Sar][hPhe(3,5-F2-4-CF3)]P[αMeL][NMeGly(cPent)][NMeD]-NMe2; lactam N-11)
NRAS/KRAS (ratio of KD value with respect to GDP-bound NRAS wild-type protein to KD value with respect to KRAS) ([1]; SPR): B (a compound having 3 or more and less than 10 is denoted as B)
HRAS/KRAS (ratio of KD value with respect to GDP-bound HRAS wild-type protein to KD value with respect to KRAS) ([2]; SPR): B (a compound having 3 or more and less than 10 is denoted as B)

CCO[C@@H]1C[C@H]2C(=O)NC3(CC(C)(C)C3)C(=O)N(C)[C@@H](C3CCCC3)C(=O)N(C)[C@H](C(=O)N3CCCC3)CC(=O)N(C)[C@H]3CCC/C=C/c4ccc(cc4)C[C@@H](C(=O)N(C)CC(=O)N[C@@H](CCc4cc(F)c(C(F)(F)F)c(F)c4)C(=O)N2C1)N1CC/C=C\C[C@@H](C1=O)N(C)C(=O)CN(C)C(=O)[C@H]([C@@H](C)CC)NC3=O [PP2574, (1S,7S,11R,13S,19S,22S,26S,29S,35S,37Z,47E)-19-cyclopentyl-7-[2-[3,5-difluoro-4-(trifluoromethyl)phenyl]ethyl]-11-ethoxy-3,3′,3′,18,21,25,31,34-octamethyl-29-[(1S)-1-methylpropyl]-22-(pyrrolidine-1-carbonyl)spiro[3,6,9,15,18,21,25,28,31,34,41-undecazapentacyclo[24.15.10.2^43,46.1^35,41.0^9,13]tetrapentaconta-37,43(53),44,46(52),47-pentaene-16,1′-cyclobutane]-2,5,8,14,17,20,24,27,30,33,54-undecone]
NRAS/KRAS (ratio of KD value with respect to GDP-bound NRAS wild-type protein to KD value with respect to KRAS) ([1]; class symbols): A (a compound having 10 or more and less than 20 is denoted as A)
HRAS/KRAS (ratio of KD value with respect to GDP-bound HRAS wild-type protein to KD value with respect to KRAS) ([2]; class symbols): A (a compound having 10 or more and less than 20 is denoted as A)

CCO[C@@H]1C[C@H]2C(=O)NC3(CCC3)C(=O)N(C)[C@@H](C(CC)CC)C(=O)N(C)[C@H](C(=O)N3CCCC3)CC(=O)N(C)[C@H]3CCC/C=C/c4ccc(cc4)C[C@@H](C(=O)N(C)CC(=O)N[C@@H](CCc4ccc(Cl)c(Cl)c4)C(=O)N2C1)N1CC/C=C\C[C@@H](C1=O)N(C)C(=O)CN(C1CC1)C(=O)[C@H]([C@@H](C)CC)NC3=O [PP3040]
NRAS/KRAS (ratio of KD value with respect to GDP-bound NRAS wild-type protein to KD value with respect to KRAS) [1, 3]: AA (a compound having 20 or more is denoted as AA)
HRAS/KRAS (ratio of KD value with respect to GDP-bound HRAS wild-type protein to KD value with respect to KRAS) [2, 3]: A (a compound having 10 or more and less than 20 is denoted as A)

CCOC[C@H]1C(=O)N[C@@H]([C@@H](C)CC)C(=O)N(C2CC2)CC(=O)N(C)[C@@H]2C/C=C\CCN(C2=O)[C@@H](Cc2ccc(C)cc2)C(=O)N(C)CC(=O)N[C@@H](CCc2ccc(C(F)(F)F)c(OC)c2)C(=O)N2C[C@H](OCC)C[C@@H]2C(=O)NC2(CC(C)(C)C2)C(=O)N(C)[C@H](CC2CCC2)C(=O)N(C)[C@H](C(=O)N(C)C)CC(=O)N1C (stereo in doubt) [PP2760]
NRAS/KRAS (ratio of KD value with respect to GDP-bound NRAS wild-type protein to KD value with respect to KRAS) ([1]; class symbols): A (a compound having 10 or more and less than 20 is denoted as A)
HRAS/KRAS (ratio of KD value with respect to GDP-bound HRAS wild-type protein to KD value with respect to KRAS) ([2]; class symbols): B (a compound having 3 or more and less than 10 is denoted as B)
